Assay results as given in US7560458B2, “Triazolopyrimidine derivatives as glycogen synthase kinase 3 inhibitors” (Janssen Pharmaceutica, N.V., priority 2003, dated 2009).

Assays:
GSK3alpha = GSK3alpha (Homo sapiens, UniProt P49840); experiment: GSK3alpha assay (same as the GSK3beta assay, GSK3alpha 0.25 ng/μl); type: biochemical; details: −log IC50 (M); given as ranges (>8; 7-8; <7); read-out: pIC50 (GSK3alpha) (converted)
Outline: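 GSK3α at 0.25 ng/μl phosphorylated 5 μM biotinylated phospho-CREB peptide with 1 μM ATP and 33P-ATP for 1 h at room temperature, in 25 mM Tris pH 7.4 with 10 mM MgCl2 and 1 mM DTT. Phosphorylated peptide was captured on streptavidin SPA beads and counted. IC50 was taken from dose-response curves.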

GSK3β = GSK3β (Homo sapiens, UniProt P49841); experiment: GSK3beta assay (SPA, biotinylated phosphorylated CREB peptide, ATP-P33); type: biochemical; details: −log IC50 (M); given as ranges (>8; 7-8; <7); read-out: pIC50 (GSK3beta) (converted)
Sequence of GSK3β (P49841 whole entry, species assumed): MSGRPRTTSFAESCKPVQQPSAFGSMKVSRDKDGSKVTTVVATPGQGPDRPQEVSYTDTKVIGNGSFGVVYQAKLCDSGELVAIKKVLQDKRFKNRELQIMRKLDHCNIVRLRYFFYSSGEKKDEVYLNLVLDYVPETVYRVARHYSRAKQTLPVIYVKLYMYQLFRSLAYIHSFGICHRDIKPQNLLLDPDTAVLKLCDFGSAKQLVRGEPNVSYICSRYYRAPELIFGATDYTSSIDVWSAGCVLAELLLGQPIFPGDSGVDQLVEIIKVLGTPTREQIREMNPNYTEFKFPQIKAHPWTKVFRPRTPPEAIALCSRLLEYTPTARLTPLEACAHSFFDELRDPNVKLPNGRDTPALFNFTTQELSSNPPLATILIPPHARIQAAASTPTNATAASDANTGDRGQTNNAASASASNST
Outline: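 Radiometric SPA at room temperature, pH 7.4 Tris/MgCl2/DTT/BSA/glycerol, with 5.7 ng/μl GSK3β, 5 μM biotinylated phospho-CREB peptide, 1 μM ATP plus 33P-ATP for 1 h. Stopped with streptavidin SPA beads, counted after overnight settling; % inhibition versus no-compound control, IC50 from dose-response curve.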

Sequence of GSK3alpha (P49840 whole entry, species assumed): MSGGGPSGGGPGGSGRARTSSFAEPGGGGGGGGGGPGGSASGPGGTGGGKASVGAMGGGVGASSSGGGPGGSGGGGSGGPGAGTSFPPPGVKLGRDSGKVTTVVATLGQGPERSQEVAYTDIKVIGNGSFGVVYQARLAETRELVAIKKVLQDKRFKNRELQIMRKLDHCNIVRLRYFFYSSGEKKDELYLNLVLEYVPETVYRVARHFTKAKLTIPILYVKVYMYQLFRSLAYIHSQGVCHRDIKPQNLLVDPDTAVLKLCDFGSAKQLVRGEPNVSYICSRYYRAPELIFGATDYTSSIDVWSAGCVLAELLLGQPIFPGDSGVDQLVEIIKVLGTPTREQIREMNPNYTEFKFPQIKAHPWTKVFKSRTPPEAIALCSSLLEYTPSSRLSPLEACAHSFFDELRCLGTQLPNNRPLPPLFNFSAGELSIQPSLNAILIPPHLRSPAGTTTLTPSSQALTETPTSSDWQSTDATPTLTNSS

| SMILES | IC50 (GSK3alpha) [M] | IC50 (GSK3β) [M] |
| --- | --- | --- |
| O=C(O)c1ccc(Nc2ncc3nnn(-c4cccc(CNC(=O)C56CC7CC(CC(C7)C5)C6)c4)c3n2)cc1 [Compound 239] | 1e-08 | 1e-08 to 1e-07 |
| O=C(O)Cc1ccc(Nc2ncc3nnn(-c4cccc(CNC(=O)C56CC7CC(CC(C7)C5)C6)c4)c3n2)cc1 [Compound 240] | 1e-08 to 1e-07 | 1e-08 to 1e-07 |
| O=C(NCc1cccc(-n2nnc3cnc(Nc4ccc(CCO)cc4)nc32)c1)C12CC3CC(CC(C3)C1)C2 [Compound 241] | 1e-08 to 1e-07 | 1e-08 to 1e-07 |
| NS(=O)(=O)c1ccc(Nc2ncc3nnn(-c4cccc(CNC(=O)C56CC7CC(CC(C7)C5)C6)c4)c3n2)cc1 [Compound 243] | 1e-08 to 1e-07 | 1e-08 to 1e-07 |
| COc1cccc(-n2nnc3cnc(Nc4ccc(C(=O)O)cc4)nc32)c1 [Compound 246] | < 1e-08 | < 1e-08 |
| O=C(O)c1ccc(Nc2ncc3nnn(-c4cccc(C(=O)NCCO)c4)c3n2)cc1 [Compound 247] | < 1e-08 | 1e-08 to 1e-07 |
| CC(=O)NCc1cccc(-n2nnc3cnc(Nc4ccc(S(N)(=O)=O)cc4)nc32)c1 [Compound 248] | < 1e-08 | < 1e-08 |
| COCc1cccc(-n2nnc3cnc(Nc4ccc(C(=O)O)c(C)c4)nc32)c1 [Compound 249] | < 1e-08 | < 1e-08 |
| NC(=O)Cc1cccc(-n2nnc3cnc(Nc4ccc(F)cc4)nc32)c1 [Compound 254] | < 1e-08 | < 1e-08 |
| CCOc1cc(Nc2ncc3nnn(-c4cccc(CCO)c4)c3n2)ccc1C(=O)O [Compound 255] | < 1e-08 | < 1e-08 |
| CS(=O)(=O)Nc1cccc(Nc2ncc3nnn(-c4cccc(CCO)c4)c3n2)c1 [Compound 256] | < 1e-08 | < 1e-08 |

Second part, the compound after the results:

| IC50 (GSK3alpha) [M] | IC50 (GSK3β) [M] | SMILES |
| --- | --- | --- |
| < 1e-08 | < 1e-08 | O=C(O)c1ccc(Nc2ncc3nnn(-c4cccc(CCO)c4)c3n2)cc1 [Compound 257] |
| < 1e-08 | < 1e-08 | N#Cc1cccc(Nc2ncc3nnn(-c4cccc(CCO)c4)c3n2)c1 [Compound 258] |
| < 1e-08 | < 1e-08 | NC(=O)c1ccc(Nc2ncc3nnn(-c4cccc(CCO)c4)c3n2)cc1 [Compound 259] |
| < 1e-08 | < 1e-08 | OCCc1ccc(Nc2ncc3nnn(-c4cccc(CCO)c4)c3n2)cc1 [Compound 260] |
| < 1e-08 | < 1e-08 | OCCc1cccc(-n2nnc3cnc(Nc4ccc(F)cc4)nc32)c1 [Compound 261] |
| < 1e-08 | < 1e-08 | COCCOc1cccc(Nc2ncc3nnn(-c4cccc(CCO)c4)c3n2)c1 [Compound 262] |
| < 1e-08 | < 1e-08 | CS(=O)(=O)Nc1cccc(Nc2ncc3nnn(-c4cccc(CC#N)c4)c3n2)c1 [Compound 264] |
| < 1e-08 | < 1e-08 | N#CCc1cccc(-n2nnc3cnc(Nc4ccc(F)cc4)nc32)c1 [Compound 265] |
| < 1e-08 | < 1e-08 | COCc1cccc(Nc2ncc3nnn(-c4cccc(CC#N)c4)c3n2)c1 [Compound 266] |
| < 1e-08 | < 1e-08 | COc1ccc(Nc2ncc3nnn(-c4cccc(CC#N)c4)c3n2)cn1 [Compound 267] |
| < 1e-08 | < 1e-08 | N#CCc1cccc(-n2nnc3cnc(Nc4ccc(CCO)cc4)nc32)c1 [Compound 268] |
| < 1e-08 | < 1e-08 | COC(=O)c1cc(Nc2ncc3nnn(-c4cccc(CC#N)c4)c3n2)ccc1NC(C)=O [Compound 269] |
| < 1e-08 | < 1e-08 | CC(C)(C)OC(=O)NCc1cccc(-n2nnc3cnc(Nc4ccc(F)cc4)nc32)c1 [Compound 270] |
| < 1e-08 | < 1e-08 | NC(=O)Cc1cccc(-n2nnc3cnc(Nc4cccc(C(=O)NCCO)c4)nc32)c1 [Compound 271] |
| < 1e-08 | < 1e-08 | N#CCc1cccc(-n2nnc3cnc(Nc4cccc(C#N)c4)nc32)c1 [Compound 272] |
| < 1e-08 | < 1e-08 | CS(=O)(=O)Nc1cccc(Nc2ncc3nnn(-c4cccc(CC(N)=O)c4)c3n2)c1 [Compound 273] |
